Structures are written as SMILES.

Here are results for 1 compound from PMC10189451, “Palmitic acid‐ and cysteine‐functionalized nanoparticles overcome mucus and epithelial barrier for oral delivery of drug” (Bioengineering & Translational Medicine, 2023).

Series [1] can be described thus: Cytotoxicity assay (CCK‐8) on HepG‐2. It counts as cell-based. The note with it: human, HepG-2 cells; read-out: Cell viability of HepG‐2. The method, then: HT29‐MTX and HepG‐2 were cultured in RPMI medium and MEM, respectively, supplemented with 10% fetal bovine serum, 1% (v/v) penicillin, and streptomycin. HT29‐MTX or HepG‐2 were seeded (100 μL) into a 96‐well plate at a cell density of 1 × 10^4 cells/well. […] After co‐incubation for 24 h, the cytotoxicity was analyzed by CCK‐8 assay (Cell Counting Kit‐8, Beyotime).

The next series concerns HT29‐MTX. Nature of the series: Cellular uptake of the NPs loaded with CUR (CLSM, HPLC). It counts as cell-based. The following applies: CUR 5–20 μg/mL, 2 and 4 h, CLSM fluorescence / HPLC. The method, then:
HT29‐MTX was seeded in the 12‐well plate with 2 × 10^5 cells/well and incubated overnight. […] After co‐incubation for prescribed time intervals (2 and 4 h), the cells were cleaned with PBS and lysed by 1% Triton X‐100 at 4°C. […] The cellular uptake efficiency was calculated using Formula (11). In addition, after fixation with 4% paraformaldehyde, the HT29‐MTX stained with Hoechst 33342 were observed by CLSM. (11) Cellular uptake%=Cellular intake ofCUR/Total amount ofCURadded×100.
HT29-MTX was seeded in the 12-well plate with 2×10^5 cells/well and incubated overnight. […] After co-incubation for prescribed time intervals (2 and 4 h), the cells were cleaned with PBS and lysed by 1% Triton X-100 at 4 ℃. […] In addition, the HT29-MTX stained with Hoechst 33342 were observed by CLSM.

A short description of series [2]: In vivo absorption in ligated small intestinal loops (CLSM). The following applies: SD rats, 2 h. How it is done:
In vivo transportation of the FITC‐labeled PA‐N‐2‐HACC NPs and FITC‐labeled PA‐N‐2‐HACC‐Cys NPs through the epithelial mucosa was qualitatively analyzed using […] in vivo absorption study.[69] Male SD rats (6–8 weeks, 230–250 g) were anesthetized by chloral hydrate, and 2‐cm sections of small intestinal loops were ligated at both ends. Then, 100 μL of 1 mg/mL FITC‐labeled PA‐N‐2‐HACC NPs and PA‐N‐2‐HACC‐Cys NPs were administered into different intestinal loops of the same SD rats (n = 3). […] After 2 h, the rats were sacrificed, and the loops treated with the FITC‐labeled NPs were withdrawn and washed with PBS (pH = 7.4). After fixation in 4% paraformaldehyde for 4 h and dehydration in 30% sucrose overnight, the loops were embedded in optimal cutting temperature compound and sectioned into 10‐μm slices using a freezing microtome (Leica CM1860, Wetzlar, Germany). Cell nuclei were stained with Hoechst 33342 for 10 min and visualized using CLSM.
All the animal care and experimental protocols were in accordance with the “National Research Council's Guide for the Care and Use of Laboratory Animals”. Male SD rats (6-8 weeks, 230-250 g) were anesthetized by chloral hydrate, and 2 cm sections of small intestinal loops were ligated at both ends. […]

Series [3] can be described thus: Pharmacokinetic study after oral administration. It counts as in vivo, SD rats. The method, then: Nine male SD rats were randomly divided into three groups (n = 3). […] Moreover, 500 μL of blood was taken before administration, and 300 μL of blood was taken from the heart at 0.25, 0.5, 1, 2, 4, 6, 9, 12, and 24 h after administration. The plasma samples were centrifuged at 3000 r/min for 10 min. Subsequently, 100 μL of plasma was mixed with 10 μL methanol containing internal standard (rheum emodin, 20 μg/mL). After vortexing for 3 min, 250 μL ethyl acetate was added, and the mixture was centrifuged at 3000 r/min for 10 min. The extraction residue was reconstituted in 100 μL of mobile phase and determined by HPLC. The mobile phase was a mixture of acetonitrile: water (containing 2% acetic acid) (52:48, v/v), the flow rate was 1 mL/min, and the detection wavelength was 426 nm. Pharmacokinetic parameters were calculated using PK SOLVER for the noncompartmental model.

For another series, the system named is DSS‐induced colitis. Description: Efficacy on DSS‐induced colitis mice. The following applies: daily oral 7 days, CUR 50 mg/kg. It counts as in vivo, BALB/c mice. How it is done:
Male BALB/c mice (6–8 weeks, 20–25 g) were randomly divided into five groups with eight mice in each group after 1 week of acclimation. Except for the normal control group, the remaining four groups were given 3% DSS instead of ordinary drinking water for 7 days, during which they were fed normally to establish the mice colitis model. […] The body weight of the mice was recorded every day, and DAI was measured to assess the severity of the colitis according to body weight loss, character of stool, and the degree of hematochezia (Table 3).
After treatment with different formulas, the mice were sacrificed after anesthesia, the colon length was measured, and the colon tissue was fixed with 10% formalin and stained with hematoxylin and eosin (H&E) for pathological examination. To count colonic goblet cells, fixed colonic tissues were also stained using Alcian blue. […]
In addition, a portion of collected colon tissue (50 mg) was homogenized with RIPA lysis buffer (Thermo Fisher, Shanghai, China) to extract total proteins. […] The protein content of supernatant was quantified using a bicinchoninic acid (BCA) protein assay kit (Thermo Fisher, Shanghai, China). The concentration of pro‐inflammatory cytokines such as TNF‐α and IL‐1β was measured by ELISA kit (Enzyme‐linked Biotechnology Co., Ltd., China).

The mark [4] stands for this setting: male, SD, rat, plasma, po, 50 mg/kg.

A word on the viability: it is a per cent measure of how many cells are alive, often set against a control. One may read the Cmax as the maximum level reached in the sampled fluid or tissue. For orientation: MRT means the average time that molecules of a dose stay in the body. A word on the Tmax: it is the time from dosing to the highest level. As usually defined, the half-life is the time in which the quantity being followed falls by half. A low value points to fast loss. Take `COc1cc(/C=C/C(=O)CC(=O)/C=C/c2ccc(O)c(OC)c2)ccc1O` [CUR, Curcumin]: the viability at 24 h, 12.5 μg/mL in series [1] turned out to be 77.5%. In addition, in the series with HT29‐MTX, the “Cellular uptake of CUR in HT29‐MTX (in words)” value was “weak fluorescence intensity”. In addition, the “Fluorescence signal in intestinal tissue (in vivo absorption, in words)” value in series [2] was “weak green fluorescence signal”. In series [3] (SD rats, oral, CUR dose 50 mg/kg, n = 3), this compound had a CL of 782.7 ± 18.7 mL/min/kg. Moreover, in series [3] (setting [4]), the Cmax worked out at 41 ± 10 ng/mL, the MRT is 4.71 ± 0.48 h, the Tmax is 1 h and the half-life is 3.27 ± 0.32 h. The AUC in series [3] (male, SD, rat, plasma, po, 50 mg/kg, read-out: AUC0‐∞) was found to be 252 ± 110 ng·h/mL. Besides, in the series on DSS‐induced colitis, the “Clinical symptoms (body weight loss, colon length shortening, DAI increase)” value was “significantly improved” and the “Colonic epithelial mucosa / goblet cells (Alcian blue staining)” value is listed as “relieved the damage caused by DSS”.
